Where two headings read alike, the source gives them in different places. Bounds are passed on as bounds.

The target of one assay is T1, CCK-B receptor (Mus musculus, UniProt P56481).
T1 construct: from tissue; host or cells: cerebral cortex of male CFLP mice (membranes)
T1 sequence (P56481 1-453): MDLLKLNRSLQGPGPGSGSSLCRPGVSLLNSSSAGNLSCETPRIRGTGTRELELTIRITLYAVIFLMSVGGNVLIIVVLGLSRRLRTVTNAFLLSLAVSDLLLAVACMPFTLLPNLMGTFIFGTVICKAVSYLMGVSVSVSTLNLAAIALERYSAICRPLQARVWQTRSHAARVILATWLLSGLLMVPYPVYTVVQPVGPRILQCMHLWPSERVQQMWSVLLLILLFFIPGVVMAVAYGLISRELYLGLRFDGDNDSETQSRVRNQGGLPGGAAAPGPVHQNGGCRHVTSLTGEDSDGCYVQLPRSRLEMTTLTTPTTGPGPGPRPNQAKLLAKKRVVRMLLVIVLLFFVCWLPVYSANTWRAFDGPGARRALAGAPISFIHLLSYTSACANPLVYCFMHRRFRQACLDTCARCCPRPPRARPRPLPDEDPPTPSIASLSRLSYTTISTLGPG
Put plainly: CCK-B receptor binding (displacement of tritiated-pentagastrin from mouse cerebral cortical membranes). Here is the method: (§1) The biological activity of compounds of the present invention may be evaluated by employing an initial screening test which rapidly and accurately measures the binding of the tested compound to known CCK receptor sites. […] (See Hays, et al., Neuropeptides 1:53-62, 1980; and Satuer, et al., Science 208:1155-1156, 1980).
In this screening test, the cerebral cortices taken from male CFLP mice weighing between 30 to 40 g were dissected on ice, weighed, and homogenized in 10 volumes of 50 mM Tris-HCl buffer (pH 7.4 at 0°-4° C.). The resulting suspension was centrifuged, the supernate was discarded, and the pellet was washed by resuspension in Tris-HCl buffer followed by recentrifugation. The final pellet was resuspended in 20 volumes of […] buffer (pH 7.2 at 23° C.) containing 130 mM NaCl, […], […].
In saturation studies, cerebral cortical membranes were incubated at 23° C. for 120 minutes in a final volume of 500 μL of Hepes incubation buffer (pH 7.2) together with 0.2-20 nM tritiated-pentagastrin (Amersham International, England).
In the displacement experiments, membranes were incubated with a single concentration (2 nM) of ligand, together with increasing concentrations (10^-11 to 10^-6 M) of competitive test compound. In each case, the nonspecific binding was defined as that persisting in the presence of the unlabeled octapeptide CCK26-33 (10^-6 M)
Following incubation, radioactivity bound to membranes was separated from that free in solution by rapid filtration through Whatman GF/B filters and washed three times with 4 mL of ice cold Tris-HCl buffer. Filters from samples incubated with tritiated-pentagastrin were placed in polyethylene vials with 4 mL of scintillation cocktail, and the radioactivity was estimated by liquid scintillation spectrometry (efficiency 47-52%). […]
Saturation curves for specific tritiated-pentagastrin binding to mouse cortical membranes were analyzed by the methods of Scatchard (Ann. New York Acad. Sci. 51:660-672, 1949), and Hill (J. Physiol. 40:IV-VIII, 1910), to provide estimates for the maximum number of binding sites (Bmax) and the equilibrium dissociation constant (Ka)
In displacement experiments, inhibition curves were analyzed by either logit-log plots or the iterative curve fitting computer program ALLFIT (DeLean, Munson, and Redbard, 1978) to provide estimates of the IC50 and nH (apparent Hill coefficient values). […]
The inhibition constant (Ki) of the test compound was then calculated according to the Cheng-Prusoff equation: [formula] where [L] is the concentration of radiolabel and Ka is the equilibrium dissociation constant. […]

For another assay, the target named is CCK-A receptor. Put plainly: CCK-A receptor binding. Here is the method:
as §1
In displacement experiments, inhibition curves were analyzed by either logit-log plots or the iterative curve fitting computer program ALLFIT (DeLean, Munson, and Redbard, 1978) to provide estimates of the IC50 and nH (apparent Hill coefficient values). (IC50 values were defined as the concentration of test compound required to produce 50% inhibition of specific binding).
The inhibition constant (Ki) of the test compound was then calculated according to the Cheng-Prusoff equation: [formula] where [L] is the concentration of radiolabel and Ka is the equilibrium dissociation constant.
The Ki values for several representative compounds of the present invention are present in Table 1.
The following table represents the CCK-A and CCK-B receptor binding affinities of the compounds. [drawing 34]
The testing procedures are disclosed in Hays, et al., Neuropeptides 1:53-62, 1980; and Satuer, et al., Science 208:1155-1156, 1980.

A further assay concerns CCK-A receptors. Conditions: words; cited from earlier work.
For the next assay, the system named is CCK-B receptors. Conditions: words; cited from earlier work.
Where [1] appears, read: 2 nM tritiated-pentagastrin, Hepes buffer pH 7.2, 23° C., read-out: CCK-B (Ki).

Broadly, the Ki is a dissociation constant, usually derived from enzyme kinetics or from competition with a known ligand. Turning to `Cc1ccc(S(=O)(=O)NC(=O)NCc2nc3ccccc3c(=O)n2-c2cccc(OC(C)C)c2)cc1` [1 NHSO2 4-CH3 Ph, Benzenesulfonamide, N-[[[[3,4-dihydro-[3-(1-methylethoxy)phenyl]-4-oxo-2-quinazolinyl]methyl]amino]carboxy]-4-methyl], the inhibition constant (Ki) at CCK-B receptor (bound printed in μM in the Ki, nM column, read-out: CCK-B Ki (cell in μM)) was more than 1 µM; at CCK-A receptor (bound printed in μM in the Ki, nM column, read-out: CCK-A Ki (cell in μM)), more than 1 µM.
With CCK-8S: sulfated octapeptide (CCK-8S), the “affinity for CCK-A receptors” value in the assay with CCK-A receptors is reported as “high affinity”. Further, the “affinity for CCK-B receptors” value with CCK-B receptors is reported as “high affinity”.
As to `CC(C)Oc1cccc(-n2c(CCNC(=O)Nc3ccc(Br)cc3)nc3ccccc3c2=O)c1` [2 NH 4-BrPh, Urea, N-(4-bromophenyl)-N'-[2-[3,4-dihydro-3-[3-(1-methylethoxy)phenyl]-4-oxo-2-quinazolinyl]ethyl]], the Ki on CCK-A receptor (read-out: CCK-A (Ki)) was found to be 1.63 µM.
For the compound `Cc1cccc(NC(=O)NCc2nc3ccccc3c(=O)n2-c2cccc(OC(C)C)c2)c1` [1 NH 3-MePh, Urea, N-[[3,4-dihydro-3-[3-(1-methylethoxy)phenyl]-4-2-quinazolinyl]methyl]-N-(3-methylphenyl)], on CCK-A receptor (read-out: CCK-A (Ki)), the Ki was 1.64 µM.
With “CCK-8d: corresponding desulfated fragment CCK-8d”, in the assay with CCK-A receptors, the “affinity for CCK-A receptors” value is recorded as “lower affinity”.
For the compound `CC(C)Oc1cccc(-n2c(CNC(=O)c3cnc4ccccc4n3)nc3ccccc3c2=O)c1` [1 -- 2-Quinoxolinyl, 2-Quinoxalinecarboxamide, N-[[1,2-dihydro-3-[3-(1-methylethoxy)phenyl]-4-oxo-2-quinazolinyl]methyl]], the Ki on CCK-B receptor (setting [1]) was 0.842 µM. Moreover, the “CCK-A, % @ 10 μM (in the Ki column)” value in the assay on CCK-A receptor (@ 10 μM) came to 29%.
As to `CC(C)Oc1cccc(-n2c(CNC(=O)Nc3ccc([N+](=O)[O-])cc3)nc3ccccc3c2=O)c1` [1 NH 4-NO2 Ph], the Ki at CCK-A receptor (read-out: CCK-A (Ki)) was found to be 0.385 µM.
Consider `CC(C)Oc1cccc(-n2c(CNC(=O)Nc3ccc(C(F)(F)F)cc3)nc3ccccc3c2=O)c1` [1 NH 4-CF3 Ph], for which the Ki on CCK-A receptor (read-out: CCK-A (Ki)) amounted to 0.674 µM.
Turning to `CC(C)Oc1cccc(-n2c(CNC(=O)NCc3ccc(Br)cc3)nc3ccccc3c2=O)c1` [1 NH 4-BrPhCH2], the Ki at CCK-A receptor (read-out: CCK-A (Ki)) was determined as 3.1 µM.
As to “gastrin: gastrin peptide sharing a common carboxy terminal pentapeptide sequence with CCK”, the “affinity for CCK-A receptors” value in the assay with CCK-A receptors was “lower affinity”. For the same compound, the “affinity for CCK-B receptors” value in the assay on CCK-B receptors is reported as “high affinity”.
With CCK-4, in the assay with CCK-A receptors, the “affinity for CCK-A receptors” value is “lower affinity”. Further, in the assay with CCK-B receptors, the “affinity for CCK-B receptors” value is on record as “high affinity”.
Take `CC(C)Oc1cccc(-n2c(CCNC(=O)OCc3ccccc3)nc3ccccc3c2=O)c1` [2 O PhCH2]: the Ki came to 0.768 µM on CCK-B receptor (setting [1]) and 2.77 µM on CCK-A receptor (read-out: CCK-A (Ki)).
In the case of `CC(C)Oc1cccc(-n2c(CNC(=O)Nc3ccc(Br)cc3)nc3ccccc3c2=O)c1` [1 NH 4-BrPh, Urea, N-(4-bromophenyl)-N-[[3,4-dihydro-3-[3-(1-methylethoxy)phenyl]-4-2-quinazolinyl]methyl]], the Ki at CCK-A receptor (read-out: CCK-A (Ki)) came to 0.984 µM.
As to `CCOC(=O)c1cccc(NC(=O)NCc2nc3ccccc3c(=O)n2-c2cccc(OC(C)C)c2)c1` [1 NH 3-COOEtPh, Benzoic Acid, 3-[[[3,4-dihydro-3-[3-(1-methylethoxy)phenyl]-4-oxo-2-quinazolinyl]methyl]amino]carbonylamino-, ethyl ester], the Ki at CCK-A receptor (read-out: CCK-A (Ki)) was 1.47 µM.
For the compound `CC(C)Oc1cccc(-n2c(CNC(=O)OCc3ccccc3)nc3ccccc3c2=O)c1`, the Ki at CCK-B receptor (setting [1]) is 0.62 µM.

Source of the values: US5756502A, “Quinazolinone derivatives as cholyecystokinin (CCK) ligands” (Warner-Lambert Company, priority 1995, dated 1998).
